14 compounds from publication PMC5469451, “Identification of compounds that suppress Toxoplasma gondii tachyzoites and bradyzoites” (PLoS ONE, 2017) can be followed below.

Like-named read-outs stand apart in the source and are kept apart here. Where a SMILES comes first, the peptide text is derived from it. The star is where a group is joined. Boc = CC(C)(C)OC(=O)*

Series [1] is described as follows: Host cell cytotoxicity assay (Cell-Titer Glo), HFF cells. It is filed as cell-based, human. As to conditions: human, Host cell viability (%). How it is done: Vero cells and HFF cells were both used as host cells because both cell types were used for the parasite screening. After incubation for 48 h in DMEM supplemented with 5% FBS, L-glutamine, penicillin, and streptomycin, cell viabilities were measured by using a Cell-Titer Glo kit (Promega) following the manufacturer’s instructions. Control wells were treated with DMSO alone in culture medium to calculate the 100% viability for each cell type.

Series [2] can be described thus: Host cell cytotoxicity assay (Cell-Titer Glo), Vero cells. Particulars: African green monkey; for viability at 10 µM: 48 h, Vero cells, DMSO = 100%, read-out: Host Viability (%). It is filed as cell-based. How it is done: Host cells were treated with compounds at the same concentration used for screening (i.e., 0.5% DMSO and 10 μM compound). Vero cells and HFF cells were both used as host cells because both cell types were used for the parasite screening. After incubation for 48 h in DMEM supplemented with 5% FBS, L-glutamine, penicillin, and streptomycin, cell viabilities were measured by using a Cell-Titer Glo kit (Promega) following the manufacturer’s instructions. Control wells were treated with DMSO alone in culture medium to calculate the 100% viability for each cell type.

Series [3] has as its system RH-2F tachyzoites (type I strain) in HFF cells. Put plainly: Confirmatory screening: RH-2F β-galactosidase growth assay in HFF cells. It counts as cell-based, Toxoplasma gondii. As to conditions: 48 h; for inhibition at 2.5 µM / inhibition at 25 µM: Toxoplasma gondii, read-out: Parasite inhibition (%). How it is done:
In the confirmatory screening, we utilize an RH strain β-galactosidase reporter parasite termed RH-2F (a type I strain). Briefly, RH-2F parasites were purified from freshly lysed infected host cells and used to infect confluent HFF cells cultured in 96-well plates. Five hundred parasites were added to each well, along with each test compound and 50 μL of culture medium. Plates were then incubated for 10 min at room temperature followed by an incubation at 37°C for 48 h in a CO2 incubator.
To measure the effects of tanshinone IIA and hydroxyzine on intracellular parasite growth, parasites were allowed to invade for 2 h, uninvaded parasites were washed away, and medium with compounds was added. After 48 h, the plates were frozen at -80°C. Plates were then thawed just prior to the measurement of beta-galactosidase activity. Beta-Glo (Promega) was used to measure β-galactosidase activity following the manufacturer’s instructions.

Series [4] relates to PLK/DLUC_1C9 tachyzoites in Vero cells. As to the kind of experiment: Primary screening: T. gondii growth assay, Renilla luciferase. Particulars: 48 h; for inhibition at 10 µM: Toxoplasma gondii, read-out: Parasite Inhibition (%). It counts as cell-based, Toxoplasma gondii. The protocol: In the primary screening, purified PLK/DLULC_1C9 tachyzoites were incubated with Vero cells at a multiplicity of infection (MOI) of 0.5. After a 2-h incubation, the infected host cells were trypsinized to obtain a cell suspension and then these suspended infected cells were inoculated into 96-well optical bottom plates containing the compound library. Each well was inoculated with 2500 cells in 25 μL of culture medium. […] Following cell inoculation, each well therefore contained 0.5% DMSO and 10 μM compound. After 48 h of culture, Renilla luciferase activity was measured by using Renilla-Glo (Promega, WI, USA) following the manufacturer’s instructions. […] The Z’-value for each plate was calculated from the Renilla luciferase activity in the negative and positive control wells.

Setting [5] is: 2.5 μM, RH-2F in HFF, compared with 10 μM pyrimethamine.
Where [6] appears, read: 25 μM, RH-2F in HFF, compared with 10 μM pyrimethamine.
Where [7] appears, read: 10 μM, PLK/DLUC_1C9 in Vero cells, DMSO = 0%, 10 μM pyrimethamine = 100%.
The mark [8] stands for this setting: HFF, 2.5 μM, RH-2F in HFF, compared with 10 μM pyrimethamine.
The mark [9] stands for this setting: HFF, 25 μM, RH-2F in HFF, compared with 10 μM pyrimethamine.

As for `OC(c1cc(C(F)(F)F)nc2c(C(F)(F)F)cccc12)C1CCCCN1` (stereo not drawn) [Mefloquine], in series [1], the viability (as a rule, a read-out of living cells in per cent, often relative to untreated cells) at 48 h, 2.5 µM was 94% and the viability at 48 h, 25 µM was determined as 48%. Besides, the viability at 48 h, 10 µM in series [2] worked out at 87%. Besides, in series [3] (setting [5]), the inhibition – broadly, the change of the read-out against control, counted positive when it falls – at 2.5 µM came to 6.5%. Further, in series [3] (setting [6]), the inhibition at 25 µM came to 113%. Besides, in series [4] (setting [7]), the inhibition at 10 µM is 101%.
For the compound `O=c1[nH]c2ccccc2n1CCCN1CCC(n2c(=O)[nH]c3cc(Cl)ccc32)CC1` [Domperidone], in series [1], the viability at 48 h, 2.5 µM was 94% and the viability at 48 h, 25 µM amounted to 83%. Also, in series [2], the viability at 48 h, 10 µM came out at 94%. In addition, the inhibition at 2.5 µM in series [3] (setting [8]) was -7.2%. In series [3] (HFF), the inhibition at 25 µM came out at 77%. In addition, the inhibition at 10 µM in series [4] (Vero) amounted to 93%.
Take `O=C(/C=C/c1ccc(O)c(O)c1)c1ccc(O)cc1O` [Butein]: in series [1], the viability at 48 h, 2.5 µM came out at 102% and the viability at 48 h, 25 µM amounted to 91%. For the same compound, in series [2], the viability at 48 h, 10 µM was determined as 93%. Moreover, in series [3] (setting [8]), the inhibition at 2.5 µM is -11%. Also, the inhibition at 25 µM in series [3] (setting [9]) came out at 110%. Besides, the inhibition at 10 µM in series [4] (setting [7]) was found to be 96%.
`CCN(CC)CCNc1ccc(CO)c2sc3ccccc3c(=O)c12` [Hycanthone]: the viability at 48 h, 10 µM in series [2] came out at 82%. Also, the inhibition at 10 µM in series [4] (setting [7]) was found to be 97%.
For `COc1ccc(S(=O)(=O)N(CC(=O)NO)CC(C)C)cc1` [N-Hydroxy-N2-isobutyl-N2-[(4-methoxyphenyl)sulfonyl]glycinamide], the viability at 10 µM in series [2] is 98%. In series [4] (Vero), the inhibition at 10 µM was determined as 101%.
For the compound `CC(C)[C@H](NC(=O)CNC(=O)OC(C)(C)C)C(=O)N[C@H](C=O)C(C)C` [N-{[(2-Methyl-2-propanyl)oxy]carbonyl}glycyl-N-[(2S)-3-methyl-1-oxo-2-butanyl]-L-valinamide] (Boc-Gly-Val-Val-aldehyde), the viability at 48 h, 10 µM in series [2] worked out at 106%. Further, the inhibition at 10 µM in series [4] (setting [7]) amounted to 105%.
Consider `O=C1[C@H]2CCCC[C@H]2C(=O)N1CCCCN1CCN(c2nsc3ccccc23)CC1` [Perospirone], for which, in series [1], the viability at 48 h, 2.5 µM was determined as 102% and the viability at 48 h, 25 µM stood at 101%. Further, the viability at 48 h, 10 µM in series [2] stood at 96%. Further, the inhibition at 2.5 µM in series [3] (setting [8]) was 4.5%. In series [3] (setting [9]), the inhibition at 25 µM is 59%. For the same compound, the inhibition at 10 µM in series [4] (setting [7]) was determined as 100%.
Regarding `OCCN1CCN(CCCN2c3ccccc3Sc3ccc(Cl)cc32)CC1` [Perphenazine], in series [1], the viability at 48 h, 2.5 µM came out at 95% and the viability at 48 h, 25 µM amounted to 65%. Besides, the viability at 48 h, 10 µM in series [2] stood at 84%. Besides, in series [3] (setting [8]), the inhibition at 2.5 µM was -6.8%. The inhibition at 25 µM in series [3] (setting [6]) is 112%. The inhibition at 10 µM in series [4] (setting [7]) is 104%.
On to `COc1ccc2[nH]c([S+]([O-])Cc3ncc(C)c(OC)c3C)nc2c1` (stereo not drawn) [Omeprazole], for which, in series [1], the viability at 48 h, 2.5 µM was found to be 100% and the viability at 48 h, 25 µM is 100%. In addition, the viability at 48 h, 10 µM in series [2] was found to be 97%. Moreover, in series [3] (HFF), the inhibition at 2.5 µM came out at 4.3% and the inhibition at 25 µM came to 44%. Moreover, the inhibition at 10 µM in series [4] (Vero) was 92%.
As for `Clc1ccccc1C(c1ccccc1)(c1ccccc1)n1ccnc1` [Clotrimazol], the viability at 48 h, 10 µM in series [2] was determined as 94%. The inhibition at 10 µM in series [4] (setting [7]) worked out at 99%.
For the compound PENITREM A, the “Parasite inhibition (%)” value in series [3] (setting [5]) was 6.0%; in series [3] (setting [6]) it was 110%; in series [4] (setting [7]) it was 105%.
Regarding `OCCN1CCN(CCCN2c3ccccc3Sc3ccc(C(F)(F)F)cc32)CC1` [FLUPHENAZINE], in series [1], the viability at 48 h, 2.5 µM stood at 104% and the viability at 48 h, 25 µM came to 84%. The viability at 48 h, 10 µM in series [2] was found to be 83%.
For the compound `COc1ccc(C(=O)/C(Cc2cc(OC)c(OC)c(OC)c2)=C(\C(=O)O)c2ccc3c(c2)OCO3)cc1` [(2Z)-2-(1,3-Benzodioxol-5-yl)-4-(4-methoxyphenyl)-4-oxo-3-(3,4,5-trimethoxybenzyl)-2-butenoic acid], in series [2], the viability at 48 h, 10 µM came out at 85%. In series [4] (setting [7]), the inhibition at 10 µM turned out to be 93%.
With `Clc1ccc(C(Cn2ccnc2)OCc2c(Cl)cccc2Cl)c(Cl)c1` (stereo not drawn) [Isoconazole], in series [2], the viability at 10 µM came out at 101%. In addition, the inhibition at 10 µM in series [4] (setting [7]) was 104%.
